Bridge positions count the residues as written; N and C are the ends. Square brackets hold non-standard residues; d marks the D form. Peptide text beside a SMILES is read from it. * marks the point of attachment. Bip = N[C@@H](Cc1ccc(-c2ccccc2)cc1)C(=O)O; Phe(3-Me) = Cc1cccc(C[C@H](N)C(=O)O)c1; 3Pal = N[C@@H](Cc1cccnc1)C(=O)O; 4Pal = N[C@@H](Cc1ccncc1)C(=O)O; Cha = N[C@@H](CC1CCCCC1)C(=O)O; Carboxymethyl = O=C(O)C*; Orn = NCCC[C@H](N)C(=O)O; Aun = NCCCCCCCCCCC(=O)O; Dab = NCC[C@H](N)C(=O)O; AEEA = NCCOCCOCC(=O)O
Target: T1, PD-1/PD-L1 interaction (PE-labeled human PD-L1-Ig binding to Jurkat cell line over-expressing human PD-1) (Homo sapiens, UniProt Q15116)
T1 construct: expressed in transfected cells; host or cells: Jurkat
Assay: Jurkat-PD-1 Cell Binding High-Content Screening Assay (CBA)
Type: cell-based
Conditions: Jurkat cell line over-expressing human PD-1; PE-labeled PD-L1-Ig 20 nM final; read-out: Jurkat hPD1-PDL1 IC50
Method in brief: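 Jurkat cells stably over-expressing human PD-1 were seeded in DMEM with 10% fetal calf serum and pre-incubated with compound for 2 h at 37° C. PE-labeled human PD-L1-Ig was then added at 20 nM final for 1 hour, after which cells were fixed with paraformaldehyde, Hoechst-stained and imaged by high-content microscopy.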

T1 sequence (Q15116 25-288): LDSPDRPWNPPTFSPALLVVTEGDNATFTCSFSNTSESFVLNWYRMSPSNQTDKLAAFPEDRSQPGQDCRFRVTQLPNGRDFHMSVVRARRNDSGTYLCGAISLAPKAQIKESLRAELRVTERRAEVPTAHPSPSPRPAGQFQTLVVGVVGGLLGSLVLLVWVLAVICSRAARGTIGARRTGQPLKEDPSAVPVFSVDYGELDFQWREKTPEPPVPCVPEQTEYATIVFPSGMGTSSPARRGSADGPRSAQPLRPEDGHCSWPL

IC50 [nM] | Compound
11 | Cc1cccc(C[C@@H]2NC(=O)[C@H](CC(=O)O)NC(=O)[C@H](Cc3ccc(OCC(=O)O)cc3)NC(=O)[C@H](CC(N)=O)NC(=O)CSC[C@@H](C(=O)N[C@@H](CCN)C(=O)NCCCCCCCCCCC(=O)O)NC(=O)[C@H](CCCN)NC(=O)[C@H](C(C)C)NC(=O)[C@H](CC3CCCCC3)NC(=O)[C@H](CCN)NC(=O)[C@@H](CC(C)C)NC(=O)[C@H](CCCN)NC(=O)[C@H](Cc3ccc(O)cc3)NC(=O)[C@H](Cc3ccc(-c4ccccc4)cc3)NC(=O)[C@H](C(C)C)NC2=O)c1 [Compound 2698] ({CH2CO}-NY(Carboxymethyl)D[Phe(3-Me)]V[Bip]Y[Orn][dL][Dab][Cha]V[Orn]C[Dab][Aun]-OH; thioether N-14)
17.9 | Cc1cccc(C[C@@H]2NC(=O)[C@H](CC(=O)O)NC(=O)[C@H](Cc3cccnc3)NC(=O)[C@H](CC(N)=O)NC(=O)CSC[C@@H](C(=O)N[C@@H](CCN)C(=O)NCCCCCCCCCCC(=O)O)NC(=O)[C@H](CCCN)NC(=O)[C@H](C(C)C)NC(=O)[C@H](CC3CCCCC3)NC(=O)[C@H](CCN)NC(=O)[C@@H](CC(C)C)NC(=O)[C@H](CCCN)NC(=O)[C@H](Cc3ccc(O)cc3)NC(=O)[C@H](Cc3ccc(-c4ccccc4)cc3)NC(=O)[C@H](C(C)C)NC2=O)c1 [Compound 2700] ({CH2CO}-N[3Pal]D[Phe(3-Me)]V[Bip]Y[Orn][dL][Dab][Cha]V[Orn]C[Dab][Aun]-OH; thioether N-14)
6.7 | CC(C)C[C@H]1NC(=O)[C@H](CCCN)NC(=O)[C@H](Cc2ccc(O)cc2)NC(=O)[C@H](Cc2ccc(-c3ccccc3)cc2)NC(=O)[C@H](C(C)C)NC(=O)[C@H](Cc2c[nH]c3ccccc23)NC(=O)[C@H](CC(=O)O)NC(=O)[C@H](Cc2ccc(OCC(=O)O)cc2)NC(=O)[C@H](Cc2ccncc2)NC(=O)CSC[C@@H](C(=O)N[C@@H](CCN)C(=O)NCCOCCOCC(=O)NCCCCCCCCCCC(=O)O)NC(=O)[C@H](CCCN)NC(=O)[C@H](C(C)C)NC(=O)[C@H](CC2CCCCC2)NC(=O)[C@H](CCN)NC1=O [Compound 2701] ({CH2CO}-[4Pal]Y(Carboxymethyl)DWV[Bip]Y[Orn][dL][Dab][Cha]V[Orn]C[Dab][AEEA][Aun]-OH; thioether N-14)
25.7 | CC(C)C[C@H]1NC(=O)[C@H](CCCN)NC(=O)[C@H](Cc2ccc(O)cc2)NC(=O)[C@H](Cc2ccc(-c3ccccc3)cc2)NC(=O)[C@H](C(C)C)NC(=O)[C@H](Cc2c[nH]c3ccccc23)NC(=O)[C@H](CC(=O)O)NC(=O)[C@H](Cc2ccc(OCC(=O)O)cc2)NC(=O)[C@H](Cc2ccncc2)NC(=O)CSC[C@@H](C(=O)N[C@@H](CCN)C(=O)NCCCCCCCCCCC(=O)O)NC(=O)[C@H](CCCN)NC(=O)[C@H](C(C)C)NC(=O)[C@H](CC2CCCCC2)NC(=O)[C@H](CCN)NC1=O [Compound 2702] ({CH2CO}-[4Pal]Y(Carboxymethyl)DWV[Bip]Y[Orn][dL][Dab][Cha]V[Orn]C[Dab][Aun]-OH; thioether N-14)
19.3 | CC(C)C[C@H]1NC(=O)[C@H](CCCN)NC(=O)[C@H](Cc2ccc(O)cc2)NC(=O)[C@H](Cc2ccc(-c3ccccc3)cc2)NC(=O)[C@H](C(C)C)NC(=O)[C@H](Cc2c[nH]c3ccccc23)NC(=O)[C@H](CC(=O)O)NC(=O)[C@H](Cc2ccc(O)cc2)NC(=O)[C@H](Cc2ccncc2)NC(=O)CSC[C@@H](C(=O)N[C@@H](CCN)C(=O)NCCOCCOCC(=O)NCCCCCCCCCCC(=O)O)NC(=O)[C@H](CCCN)NC(=O)[C@H](C(C)C)NC(=O)[C@H](CC2CCCCC2)NC(=O)[C@H](CCN)NC1=O [Compound 2703] ({CH2CO}-[4Pal]YDWV[Bip]Y[Orn][dL][Dab][Cha]V[Orn]C[Dab][AEEA][Aun]-OH; thioether N-14)
26.7 | CC(C)C[C@H]1NC(=O)[C@H](CCCN)NC(=O)[C@H](Cc2ccc(O)cc2)NC(=O)[C@H](Cc2ccc(-c3ccccc3)cc2)NC(=O)[C@H](C(C)C)NC(=O)[C@H](Cc2c[nH]c3ccccc23)NC(=O)[C@H](CC(=O)O)NC(=O)[C@H](Cc2ccc(O)cc2)NC(=O)[C@H](Cc2ccncc2)NC(=O)CSC[C@@H](C(=O)N[C@@H](CCN)C(=O)NCCCCCCCCCCC(=O)O)NC(=O)[C@H](CCCN)NC(=O)[C@H](C(C)C)NC(=O)[C@H](CC2CCCCC2)NC(=O)[C@H](CCN)NC1=O [Compound 2704] ({CH2CO}-[4Pal]YDWV[Bip]Y[Orn][dL][Dab][Cha]V[Orn]C[Dab][Aun]-OH; thioether N-14)
8.3 | Cc1cccc(C[C@@H]2NC(=O)[C@H](CC(=O)O)NC(=O)[C@H](Cc3ccc(OCC(=O)O)cc3)NC(=O)[C@H](Cc3ccncc3)NC(=O)CSC[C@@H](C(=O)N[C@@H](CCN)C(=O)NCCOCCOCC(=O)NCCCCCCCCCCC(=O)O)NC(=O)[C@H](CCCN)NC(=O)[C@H](C(C)C)NC(=O)[C@H](CC3CCCCC3)NC(=O)[C@H](CCN)NC(=O)[C@@H](CC(C)C)NC(=O)[C@H](CCCN)NC(=O)[C@H](Cc3ccc(O)cc3)NC(=O)[C@H](Cc3ccc(-c4ccccc4)cc3)NC(=O)[C@H](C(C)C)NC2=O)c1 [Compound 2705] ({CH2CO}-[4Pal]Y(Carboxymethyl)D[Phe(3-Me)]V[Bip]Y[Orn][dL][Dab][Cha]V[Orn]C[Dab][AEEA][Aun]-OH; thioether N-14)
18.4 | Cc1cccc(C[C@@H]2NC(=O)[C@H](CC(=O)O)NC(=O)[C@H](Cc3ccc(OCC(=O)O)cc3)NC(=O)[C@H](Cc3ccncc3)NC(=O)CSC[C@@H](C(=O)N[C@@H](CCN)C(=O)NCCCCCCCCCCC(=O)O)NC(=O)[C@H](CCCN)NC(=O)[C@H](C(C)C)NC(=O)[C@H](CC3CCCCC3)NC(=O)[C@H](CCN)NC(=O)[C@@H](CC(C)C)NC(=O)[C@H](CCCN)NC(=O)[C@H](Cc3ccc(O)cc3)NC(=O)[C@H](Cc3ccc(-c4ccccc4)cc3)NC(=O)[C@H](C(C)C)NC2=O)c1 [Compound 2706] ({CH2CO}-[4Pal]Y(Carboxymethyl)D[Phe(3-Me)]V[Bip]Y[Orn][dL][Dab][Cha]V[Orn]C[Dab][Aun]-OH; thioether N-14)
20.8 | Cc1cccc(C[C@@H]2NC(=O)[C@H](CC(=O)O)NC(=O)[C@H](Cc3ccc(O)cc3)NC(=O)[C@H](Cc3ccncc3)NC(=O)CSC[C@@H](C(=O)N[C@@H](CCN)C(=O)NCCOCCOCC(=O)NCCCCCCCCCCC(=O)O)NC(=O)[C@H](CCCN)NC(=O)[C@H](C(C)C)NC(=O)[C@H](CC3CCCCC3)NC(=O)[C@H](CCN)NC(=O)[C@@H](CC(C)C)NC(=O)[C@H](CCCN)NC(=O)[C@H](Cc3ccc(O)cc3)NC(=O)[C@H](Cc3ccc(-c4ccccc4)cc3)NC(=O)[C@H](C(C)C)NC2=O)c1 [Compound 2707] ({CH2CO}-[4Pal]YD[Phe(3-Me)]V[Bip]Y[Orn][dL][Dab][Cha]V[Orn]C[Dab][AEEA][Aun]-OH; thioether N-14)
62.8 | Cc1cccc(C[C@@H]2NC(=O)[C@H](CC(=O)O)NC(=O)[C@H](Cc3ccc(O)cc3)NC(=O)[C@H](Cc3ccncc3)NC(=O)CSC[C@@H](C(=O)N[C@@H](CCN)C(=O)NCCCCCCCCCCC(=O)O)NC(=O)[C@H](CCCN)NC(=O)[C@H](C(C)C)NC(=O)[C@H](CC3CCCCC3)NC(=O)[C@H](CCN)NC(=O)[C@@H](CC(C)C)NC(=O)[C@H](CCCN)NC(=O)[C@H](Cc3ccc(O)cc3)NC(=O)[C@H](Cc3ccc(-c4ccccc4)cc3)NC(=O)[C@H](C(C)C)NC2=O)c1 [Compound 2708] ({CH2CO}-[4Pal]YD[Phe(3-Me)]V[Bip]Y[Orn][dL][Dab][Cha]V[Orn]C[Dab][Aun]-OH; thioether N-14)

From US20260022142A1, “MACROCYCLIC IMMUNOMODULATORS” (Bristol-Myers Squibb Company, priority 2022, published 2026)
